Measurements: US9802897B2, “Amidopyridinol derivative or pharmaceutically acceptable salt thereof and pharmaceutical composition comprising same as active component” (Research Cooperation Foundation of Yeungnam University, priority 2013, dated 2017)

Columns and labels:
A549 lung cancer cells = experiment: CAM inoculated with A549 lung cancer cells: angiogenesis and tumor growth; type: in vivo, chicken; conditions: for Inhibition rates of angiogenesis (%) / Inhibition rates of tumor growth (%): A549 on CAM, 5 days; for inhibitory effects on angiogenesis and tumor growth (in words): at each density
Protocol: To confirm inhibitory effects on angiogenesis through in vivo experiments, the CAM analysis was carried out (refer to Nguyen M et al., Microvascular Res., 47, pp 31-40, 1994). A fertilized egg of a chicken was cultured in conditions maintaining a temperature of 37° C. and relative humidity of 55%. On the 9th day of the culturing, a first small hole was made on an air sac part using a hypodermic needle (Green Cross Medical Corp., Korea), and then, a second hole was made on a flat part of the fertilized egg to make a window thereon. Air was removed through the first hole, i.e., the air sac part, and accordingly, the CAM was separated from the shell of the fertilized egg. Then, a grinding wheel (Multipro 395JA, Dremel, Mexico) was used to cut the air sac part, thereby making a window thereon. Meanwhile, A549 lung cancer cells were mixed with matrigel at a ratio of 1:1, and then, the mixture was treated with Compounds 8a, 8b, and 8g, respectively, followed by being inoculated at a density of 1.5×10^6 cells/CAM.
After 5 days of the inoculation, the CAM part on which tumors were formed was isolated, and then, washed with PBS. The Stemi SV6 stereomicroscope (Carl Zeiss, Germany) and the Image-Pro Plus software (Media Cybernetics; Silver Spring, Md., USA) were used to capture images of the CAM part, so as to measure the number of the blood vessels and to analyze data obtained therefrom.

TNBS-induced colitis = TNBS-induced colitis model of inflammatory bowel disease; type: in vivo, rat (Sprague Dawley)
Source text: To see alleviating effects of the compounds of the present invention on colitis, an animal model induced by TNBS and having colitis was used for the experiments. The animal used herein was a 7 to 8 week Sprague Dawley species purchased from Samtaco Bio Korea. After the purchase, the animal was stabilized with typical solid feed for 2 days before being used for the experiments. The animal was freely supplied with feed and water during the experiments, and stayed in conditions maintaining a cage temperature of about 25±1° C. and relative humidity of about 50±10%. The cage was equipped with an automatic lightening system to adjust 12-hour light-dark cycle.
In regard to the experimental groups, 5 groups (i.e., a control group, a group administered with TNBS only, […], […], […]) were used according to the randomized block design, wherein each group consists of 6 rats having an average weight of about 180±10 g. The rats that had been fasting for 24 hours were anesthetized with diethylether (Et2O), and then, a 1 mL syringe connected with a polyethylene catheter was used to slowly inject 0.8 mL of 3% TNBS into colonic enema through the anus, wherein TNBS was diluted with 50% (v/v) ethanol. To prevent leakage of 3% TNBS from the anus, the rats turned upside down and let stand for 60 minutes.
In regard to the control group, only a vehicle (50% (v/v) ethanol) was injected into the rats of the control group in the same manner as in preparation of other experimental groups. To examine the effects of the drug, after being fasting for 24 hours, the rats were administered with drugs, i.e., 0.1 mg/kg or 1.0 mg/kg of Compounds 8a and 8j, once a day at a certain time from the second day to the fifth day of the TNBS treatment. As a comparative experimental material, 5-ASA, which is an active metabolite of sulfasalazine that is the most well-known as a therapeutic agent for IBDs, was used as a positive control group.
All the rats were scarified on the seventh day of the TNBS administration. […] After the large intestine of the rat was harvested, a 5 to 6 cm-long tissue from was cut from the anus to a size of 1 cm, and then, subjected to measure an intestine weight and activation of myeloperoxidase (MPO) in the tissue, and to perform a biopsy. In addition, changes in weight of all the animals used in the experiments were observed by using a digital mass meter, beginning from the fasting step, the TNBS administration, and the drug administration. In consideration of the management and use of laboratory animals, the animal experiments were followed according to institutional guidelines from Laboratory Animal Resources, Yeungnam University.
To measure the activation of MPO, an MPO assay was used. The colorectal tissue was washed with cold PBS, and a weight thereof was measured. Then, 200 μL of lysis buffer (pH7.4, 200 mM NaCl, 5 mM EDTA, 10 mM Tris, 10% glycerol) was added for each 10 mg of the weight of the tissue, and then, the tissue homogenizer (Bio homogenizer M133, BIOSPEC PRODUCTS Inc. USA) was used for 30 seconds in terms of homogenization. The homogenized sample was subjected to centrifugation (1500×g) twice, each for 15 minutes. The supernatant obtained therefrom was used to measure the activation of MPO by using the MPO ELISA kit (HK210, Hycult Biotechnology, Netherlands). 100 μL of the supernatant was added to the 96-well plates, each of which well was coated with an anti-mouse MPO antibody, to allow a reaction at room temperature for 1 hour, followed by being washed with PBS three times. Here, 100 μL of a reconstituted tracer was added thereto to allow a reaction at room temperature for 1 hour, followed by being washed three times repeatedly. Then, 100 μL of a reptavidin-peroxidase conjugate was added thereto to allow a reaction at room temperature for 1 hours, followed being washed. Then, 100 μL of a TMB substrate solution was added thereto to allow a reaction for 30 minutes. […]

ARPE-19 cell line = experiment: Scavenging of ROS induced by risk factors of macular degeneration (4-HNE, Ang II) in ARPE-19 cells; type: cell-based; conditions: vs control group
Protocol: To measure scavenging effects of ROS in HUVEC cells that were induced by VEGF, 2′,7′-dichlorofluorescein diacetate (DCF-DA) was used. […] After […] at a concentration of 1×10^5, each of which well was coated with 0.2% gelatin, DCF-DA was cultured for 24 hours. Meanwhile, Compounds 8a and 8b were pre-treated for 3 hours, induced by VEGF for 15 minutes, and then, washed with PBS (pH 7.4) three times. Then, 10 μM of DCF-DA was placed in a EBM-2 medium to be treated for 30 minutes in a dark room. Then, DCF-DA was washed again with PBS three times, and then, subjected to measure intensity of fluorescence in the cells by using a fluorescence microscope.
According to a similar manner as in Experimental Example 2, a risk factor of macular degeneration, e.g., 4-hydroxynonenal (4-HNE) or angiotensin II (Ang II), were treated with an adult retinal pigment epithelium-19 (ARPE-19) cell line, so as to observe scavenging effects of ROS in Compounds 8a and 8b.

[1] = ARPE-19 treated with 4-hydroxynonenal (4-HNE)
[2] = ARPE-19 treated with angiotensin II (Ang II)

Row | SMILES | Inhibition rates of angiogenesis (%) (A549 lung cancer cells; 0.001 pmol/CAM) | Inhibition rates of tumor growth (%) (A549 lung cancer cells; 0.001 pmol/CAM) | Inhibition rates of angiogenesis (%) (A549 lung cancer cells; 0.01 pmol/CAM) | Inhibition rates of tumor growth (%) (A549 lung cancer cells; 0.01 pmol/CAM) | Inhibition rates of angiogenesis (%) (A549 lung cancer cells; 0.1 pmol/CAM) | Inhibition rates of tumor growth (%) (A549 lung cancer cells; 0.1 pmol/CAM) | Inhibition rates of angiogenesis (%) (A549 lung cancer cells; 1.0 pmol/CAM) | Inhibition rates of tumor growth (%) (A549 lung cancer cells; 1.0 pmol/CAM) | inhibitory effects on angiogenesis and tumor growth (in words) (A549 lung cancer cells) | changes in weights of the rat (TNBS-induced colitis; 1.0 mg/kg once a day, TNBS-induced rats) | conditions of the large intestine observed with the naked eye (TNBS-induced colitis; 1.0 mg/kg, TNBS-induced rats) | weight of the large intestine (TNBS-induced colitis; 1.0 mg/kg, vs TNBS-treated group) | activation of myeloperoxidase (MPO) in colorectal tissue (TNBS-induced colitis; 1.0 mg/kg, vs group treated with TNBS only) | intensity of fluorescence (ROS) (ARPE-19 cell line; [1]) | intensity of fluorescence (ROS) (ARPE-19 cell line; [2])
1 | CC(=O)Nc1nc(C)c(O)c(C)c1C [Compound 8a, N-(5-hydroxy-3,4,6-trimethylpyridine-2-yl)acetamide] | 12.7 ± 6.5 | 20.3 ± 5.9 | 23.8 ± 5.2 | 34.2 ± 5.3 | 30.4 ± 3.7 | 37.9 ± 8.0 | 41.2 ± 1.4 | 47.7 ± 4.1 | inhibited angiogenesis upon tumorigenesis, as well as tumor growth | excellent recovery of the weight compared to the group treated with 5-ASA | excellent inhibitory effects on swelling and congestion | significantly decreased | lower activation of MPO | significant decrease in the intensity of fluorescence | significant decrease in the intensity of fluorescence
2 | CCCCCCCCCCCC(=O)Nc1nc(C)c(O)c(C)c1C [Compound 8b, N-(5-hydroxy-3,4,6-trimethylpyridine-2-yl)dodecanamide] | 12.2 ± 4.4 | 21.7 ± 8.9 | 18.0 ± 3.2 | 26.0 ± 10.0 | 21.3 ± 2.0 | 31.3 ± 7.3 | 24.7 ± 2.2 | 38.2 ± 7.2 | inhibited angiogenesis upon tumorigenesis, as well as tumor growth | – | – | – | – | significant decrease in the intensity of fluorescence | significant decrease in the intensity of fluorescence
